Values of other authors as cited in patent US4127530A, “Novel heneicosapeptides, intermediates therefor and pharmaceutical compositions and methods employing said heneicosapeptides” (priority 1977, dated 1978).

Legend:
[1] = tested on: partially purified brain opiate receptor sites; settings: for opioid activity in binding to partially purified brain opiate receptor sites: fragments isolated from the pituitary
[2] = injected directly into the brain of the rat

α-endorphin
opioid activity in binding to partially purified brain opiate receptor sites [1]: potent opioid activity

γ-endorphin
opioid activity in binding to partially purified brain opiate receptor sites [1]: potent opioid activity

β-endorphin: β-lipotropin fragment 61-91
opioid activity in binding to partially purified brain opiate receptor sites [1]: potent opioid activity

H-Tyr-Gly-Gly-Phe-Met-OH [methionine enkephalin]
analgesic activity [2]: weak analgesic agent of short duration
binding to partially purified brain opiate receptor sites ([1]; natural peptide): binds stereo-specifically
